From PMC4817029, “Molecular characterization of a family 5 glycoside hydrolase suggests an induced-fit enzymatic mechanism” (Scientific Reports, 2016) come the findings set out here.

Assay [1] has as its target T1, BlCel5B (Bacillus licheniformis, UniProt Q65JI7).
T1 construct: gene celC; full-length trimodular enzyme (CD, Ig-like, CBM46) without signal peptide (nucleotides 1-81 removed; gene end nt 1683); E. coli Rosetta2 (DE3), pETTRXA-1a/LIC; His6 tag cut by TEV; monomer
In words: X-ray crystal structure ([…] A) after soaking with cellopentaose. Conditions: crystal soaked with five times molar excess of cellopentaose for 24 h; cellotetraose from cleavage in the crystal; subsites -1 to -3 of the catalytic domain. In kind it is binding.

Assay [2] has as its target T1, BlCel5B. The experiment in a line: MALDI/TOF-MS product profile. The conditions noted are these: 1.0 mM cellopentaose, 10 mM ammonium bicarbonate pH 7.0, 50 C, 90 min. In kind it is biochemical.

T1 sequence (Q65JI7 entry or part of it): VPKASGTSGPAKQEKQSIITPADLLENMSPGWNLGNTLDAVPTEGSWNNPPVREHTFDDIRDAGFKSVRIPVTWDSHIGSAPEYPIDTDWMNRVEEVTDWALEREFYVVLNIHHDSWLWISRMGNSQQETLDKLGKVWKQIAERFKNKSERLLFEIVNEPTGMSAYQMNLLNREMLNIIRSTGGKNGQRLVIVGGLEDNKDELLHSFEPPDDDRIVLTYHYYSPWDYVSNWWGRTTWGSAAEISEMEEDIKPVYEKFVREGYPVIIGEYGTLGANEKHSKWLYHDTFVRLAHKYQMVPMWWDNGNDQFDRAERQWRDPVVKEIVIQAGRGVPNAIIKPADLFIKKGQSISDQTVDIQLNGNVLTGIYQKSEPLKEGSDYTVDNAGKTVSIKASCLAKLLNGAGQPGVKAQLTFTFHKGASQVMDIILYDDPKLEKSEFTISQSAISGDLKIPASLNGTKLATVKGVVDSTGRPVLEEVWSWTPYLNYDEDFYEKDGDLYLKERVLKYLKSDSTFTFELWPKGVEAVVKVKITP

For `OC[C@H]1O[C@@H](O[C@H]2[C@H](O)[C@@H](O)[C@H](O[C@H]3[C@H](O)[C@@H](O)[C@H](O[C@H]4[C@H](O)[C@@H](O)C(O)O[C@@H]4CO)O[C@@H]3CO)O[C@@H]2CO)[C@H](O)[C@@H](O)[C@@H]1O` (some centres unmarked) [C4, cellotetraose], in assay [1], the “X-ray crystal structure (1.75 A) after soaking with cellopentaose” value is “Electron density maps clearly reveal the presence of a cellotetraose (C4)”.
Turning to `OC[C@H]1O[C@@H](O[C@H]2[C@H](O)[C@@H](O)[C@H](O[C@H]3[C@H](O)[C@@H](O)[C@H](O[C@H]4[C@H](O)[C@@H](O)[C@H](O[C@H]5[C@H](O)[C@@H](O)C(O)O[C@@H]5CO)O[C@@H]4CO)O[C@@H]3CO)O[C@@H]2CO)[C@H](O)[C@@H](O)[C@@H]1O` (some centres unmarked) [C5, cellopentaose], the MALDI/TOF-MS product profile result in assay [2] is “ability of BlCel5B to cleave C5 into glucose and C4 molecules in solution was demonstrated”.
